Values of other authors as cited in patent US20130189275A1, “COMPOSITIONS AND METHODS FOR INHIBITION OF OR TREATMENT OF DENGUE VIRUS INFECTION” (priority 2010, published 2013).

## C=C(c1ccc(C(=O)O)cc1)c1cc2c(cc1C)C(C)(C)CCC2(C)C [bexarotene]
Syndecan-2
  syndecan-2 expression: downregulated

## C[C@]12CCC(=O)C[C@@H]1CC[C@@H]1[C@@H]2CC[C@]2(C)[C@@H](O)CC[C@@H]12 [dihydrotestosterone]
Syndecan-3
  syndecan-3 expression: downregulated

## O=C1NC(=O)C(c2ccccc2)(c2ccccc2)N1 [phenyloin (PHT), phenyloin]
Syndecan-4
  syndecan-4 expression: downregulated

## Cc1cccc(Nc2cc(Cl)nc(SCC(=O)O)n2)c1C [pirinixic acid]
Syndecan-1
  syndecan-1 expression: downregulated

## CC1=C(/C=C/C(C)=C/C=C/C(C)=C/C(=O)O)C(C)(C)CCC1 [tretinoin]
Syndecan-1
  syndecan-1 expression: downregulated
